Where two headings read alike, the source gives them in different places.
Experiments:
[1] = tested on: HCV replicon in 5-2 Luc replicon-comprising cells; assay: HCV replicon assay (luciferase; HEPC_REPLICON-LUC); type: cell-based, Hepatitis C virus; settings: read-out: Replicon (IC50)
Description: In one embodiment, the inhibitory activity of the metabolically active agent of the prodrug can be confirmed in a replicon assay that assesses the ability of a test compound to block or inhibit HCV replication in replicon cells. One example of a suitable replicon assay is the liver cell-line Huh 7-based replicon assay described in Lohmann et al., 1999, Science 285:110-113. A specific example of this replicon assay which utilizes luciferase translation is provided in the Examples Section. In one embodiment of this assay, the amount of test prodrug that yields a 50% reduction in translation as compared to a control cell (IC50) may be determined.
The inhibitory activity of certain prodrugs of the invention, which may inhibit HCV translation or replication prior to metablism and/or are metabolized into active agents, was confirmed using an HCV replicon assay. The HCV replicon can include such features as the HCV 5′ untranslated region including the HCV IRES, the HCV 3′ untranslated region, selected HCV genes encoding HCV polypeptides, selectable markers, and a reporter gene such as luciferase, GFP, etc. In the assay, actively dividing 5-2 Luc replicon-comprising cells (obtained from Ralf Bartenschlager; see Lohmann et al., 1999, Science 285:110-113) were seeded at a density of between about 5,000 and 7,500 cells/well onto 96 well plates (about 90 µl of cells per well) and incubated at 37° C. and 5% CO2 for 24 hours. Then, the test prodrug (in a volume of about 10 PI) was added to the wells at various concentrations and the cells were incubated for an additional 24-48 hours before luciferase assay. The media was aspirated from each well and Bright-Glo (Promega, Madison, WI) luciferase assay reagents were added to each well according to the manufacturer's instructions. Briefly, the BrightGlo reagent was diluted 1:1 with PBS and 100 µl of diluted reagent was added to each well. After 5 min of incubation at room temperature, luciferin emission was quantified with a luminometer. In this assay, the amount of test prodrug that yielded a 50% reduction in luciferase emission (IC50) was determined. This IC50 value may represent the antiviral activity of the prodrug itself, the activity of prodrug transformed into its active metabolized form, or a combination of the two.
In TABLES 3 through 12, a value of “+” indicates an IC50 of 10 μM or less in the specified assay; a value of “−” indicates an IC50 of greater than 10 μM in the specified assay.

[2] = tested on: HCV NS5A protein in 9-13 replicon cells; assay: Replicon quantitative Western blot assay (HEPC_REPLICON-ICWESTERN); type: cell-based; settings: Hepatitis C virus, read-out: HEPC_REPLICON-ICWESTERN Result Value
Description: Alternatively, the inhibitory activity of the metabolically active agents of the prodrugs can be confirmed using a quantitative Western immunoblot assay utilizing antibodies specific for HCV non-structural proteins, such as NS3, NS4A NS5A and NS5B. In one embodiment of this assay, replicon cells are treated with varying concentrations of test prodrug to determine the concentration of the metabolically active agent of the test prodrug that yields a 50% reduction in the amount of a non-structural protein produced as compared to a control sample (IC50). A single non-structural protein may be quantified or multiple non-structural proteins may be quantified. Antibodies suitable for carrying out such immunoblot assays are available commercially (e.g., from BIODESIGN International, Saco, Me.).
Certain prodrugs of the invention, which may inhibit HCV translation or replication prior to metablism and/or are metabolized into active agents, were also tested for their ability to inhibit HCV replication using a quantitative Western blot analysis with antibodies specific for the HCV NS5A or other non-structural proteins. Actively dividing 9-13 replicon cells were seeded into 6-well plates at a density of 1×10^5 cells/well in a volume of 2 ml/well and incubated at 37° C. and 5% CO2 for 24 hours. Various concentrations of test prodrugs (in a volume of 10 ul) were added to the wells and the cells incubated for another 48 hours. Protein samples were prepared from the cultured cells, resolved on a SDS-PAGE gel and transferred to a nitrocellulose membrane. The membrane was blocked with 5% non-fat milk in PBS for 1 hour at room temperature. Primary antibody (anti NS5A antibody; BIODESIGN International, Saco, Me.) incubation was performed for 1 hour at room temperature, after which the membrane was washed 3 times (for 15 min per time) with PBST (PBS plus 0.1% Tween 20). Horseradish peroxidase conjugated secondary antibody incubation was performed for 1 hour at room temperature and the membrane was washed 3 times (for 15 min per time) with PBST. The membrane was then soaked in substrate solution (Pierce) and exposed to a film or quantified using an imager. In this assay, the amount of test prodrug that is believed to be transformed into an active agent under the given conditions that yielded a 50% reduction in the amount of NS5A protein translated as compared to a control sample (IC50) was determined.

[3] = Hepatitis C virus, Tables 3-12, 50% reduction in luciferase emission, 5-2 Luc replicon cells

COc1cccc(Cl)c1-c1cc(-c2cccc(N(Cc3oc(=O)oc3C(C)C)C(=O)C(Cl)Cl)c2)on1 [Cpd. 37, 2,2-dichloro-N-[3′-[3′-(2′-chloro-6′-methoxyphenyl)-5′-isoxazoyl]phenyl]-N-[(5-isopropyl-1,3-dioxolene-2-one-4-yl)methylene] acetamide]
IC50 [1, 3]: ≤ 10 µM

CCCc1oc(=O)oc1CN(C(=O)C(Cl)Cl)c1cccc(-c2cc(-c3c(Cl)cccc3Cl)no2)c1 [Cpd. 38, 2,2-dichloro-N-[3′-[3′-(2′,6′-dichlorophenyl)-5′-isoxazoyl]phenyl]-N-[(5-n-propyl-1,3-dioxolene-2-one-4-yl)methylene] acetamide]
IC50 [1, 3]: ≤ 10 µM

O=C(C(Cl)Cl)N(Cc1oc(=O)oc1C1CCCCC1)c1cccc(-c2cc(-c3c(Cl)cccc3Cl)no2)c1 [Cpd. 39, 2,2-dichloro-N-[3′-[3′-(2′,6′-dichlorophenyl)-5′-isoxazoyl]phenyl]-N-[(5-cyclohexyl-1,3-dioxolene-2-one4-yl)methylene] acetamide]
IC50 [1, 3]: ≤ 10 µM

CCc1oc(=O)oc1CN(C(=O)C(Cl)Cl)c1cccc(-c2cc(-c3c(Cl)cccc3Cl)no2)c1 [Cpd. 40]
IC50 [1, 3]: ≤ 10 µM

Cc1oc(=O)oc1CN(C(=O)C(Cl)Cl)c1ccnc(-c2cc(-c3c(Cl)cccc3Cl)no2)c1 [Cpd. 41, 2,2-dichloro-N-[2′-[3′-(2′,6′-dichlorophenyl)-5′-isoxazoyl](4-pyridyl)]-N-[(5-methyl-1,3-dioxolene-2-one4-yl)methylene] acetamide]
IC50 [1, 3]: ≤ 10 µM

CC(C)c1oc(=O)oc1CN(C(=O)C(Cl)Cl)c1ccnc(-c2cc(-c3c(Cl)cccc3Cl)no2)c1 [Cpd. 42, 2,2-dichloro-N-[2′-[3′-(2′,6′-dichlorophenyl)-5′-isoxazoyl](4-pyridyl)]N-[(5-i-propyl-1,3-dioxolene-2-one4-yl)methylene] acetamide]
IC50 [1, 3]: ≤ 10 µM

CCCCCc1oc(=O)oc1CN(C(=O)C(Cl)Cl)c1ccnc(-c2cc(-c3c(Cl)cccc3Cl)no2)c1 [Cpd. 43, 2,2-dichloro-N-[2′-[3′-(2′,6′-dichlorophenyl)-5′-isoxazoyl](4pyridyl)]N-[(5-n-pentyl-1,3-dioxolene-2-one4yl)methylene] acetamide]
IC50 [1, 3]: ≤ 10 µM

CCOC(=O)c1oc(=O)oc1CN(C(=O)C(Cl)Cl)c1cccc(-c2cc(-c3c(Cl)cccc3Cl)no2)c1 [Cpd. 44]
IC50 [1, 3]: > 10 µM

O=C(Nc1cccc(-c2cc(-c3c(Cl)cccc3Cl)no2)c1)C(Cl)(Cl)C(=O)N1CCOCC1 [Cpd. 50]
IC50 [1, 3]: ≤ 10 µM

O=C(CCN(C(=O)C(Cl)Cl)c1cccc(-c2cc(-c3c(Cl)cccc3Cl)no2)c1)c1ccc(Cl)cc1 [Cpd. 104a, 2′,2′-Dichloro-N-[3-[3-(2,6-dichlorophenyl)-5-isoxazolyl]phenyl]-N-[2-(4-chlorobenzoyl)ethyl] Acetamide]
IC50 ([1]; Table 15): ≤ 10 µM

CC(C)(C)OC(=O)C(Cl)(Cl)C(=O)Nc1ccnc(-c2cc(-c3c(Cl)cccc3Cl)no2)c1 [Cpd. 505]
IC50 [1, 3]: ≤ 10 µM

CC(C)(C)OC(=O)c1ccc(CN(C(=O)C(Cl)Cl)c2ccnc(-c3cc(-c4c(Cl)cccc4Cl)no3)c2)cc1 [Cpd. 1021, tert-Butyl 4-((2,2-Dichloro-N-(2-(3-(2,6-dichlorophenyl)isoxazol-5-yl)pyridin-4-yl)acetamido)methyl)benzoate]
IC50 ([2]; Table 14): 1 to 20 µM

O=C(C(Cl)Cl)N(Cc1ccc(OCCN2CCOCC2)cc1)c1ccnc(-c2cc(-c3c(Cl)cccc3Cl)no2)c1 [Cpd. 1022, 2,2-Dichloro-N-(2-(3-(2,6-dichlorophenyl)isoxazol-5-yl)pyridin-4-yl)-N-(4-(2-morpholinoethoxy)benzyl)acetamide]
IC50 ([2]; Table 14): < 1 µM

CCN1CCN(c2ccc(CN(C(=O)C(Cl)Cl)c3ccnc(-c4cc(-c5c(Cl)cccc5Cl)no4)c3)cc2)CC1 [Cpd. 1023, 2,2-Dichloro-N-(2-(3-(2,6-dichlorophenyl)isoxazol-5-yl)pyridin-4-yl)-N-(4-(4-ethylpiperazin-1-yl)benzyl)acetamide]
IC50 ([2]; Table 14): < 1 µM

O=C(CCN(C(=O)C(Cl)Cl)c1ccnc(-c2cc(-c3c(Cl)cccc3Cl)no2)c1)C1CCCN1 (stereo not shown) [Cpd. 1024, 2,2-Dichloro-N-(2-(3-(2,6-dichlorophenyl)isoxazol-5-yl)pyridin-4-yl)-N-(3-oxo-3-(pyrrolidin-2-yl)propyl)acetamide]
IC50 ([2]; Table 14): < 1 µM

O=C(C(Cl)Cl)N(CCN1CCOCC1)c1ccnc(-c2cc(-c3c(Cl)cccc3Cl)no2)c1 [Cpd. 1026, 2,2-Dichloro-N-(2-(3-(2,6-dichlorophenyl)isoxazol-5-yl)pyridin4-yl)-N-(2-morpholinoethyl)acetamide]
IC50 ([2]; Table 14): > 20 µM

CCCNC(=O)Oc1c(C)cc(CN(C(=O)C(Cl)Cl)c2ccnc(-c3cc(-c4c(Cl)cccc4Cl)no3)c2)cc1C [Cpd. 1027, 4-((2,2-Dichloro-N-(2-(3-(2,6-dichlorophenyl)isoxazol-5-yl)pyridin4-yl)acetamido)methyl)-2,6-dimethylphenyl Propylcarbamate]
IC50 ([2]; Table 14): 1 to 20 µM

O=C(C(Cl)Cl)N(COCCc1ccccn1)c1ccnc(-c2cc(-c3c(Cl)cccc3Cl)no2)c1 [Cpd. 1028, 2,2-Dichloro-N-(2-(3-(2,6-dichlorophenyl)isoxazol-5-yl)pyridin-4-yl)-N-((2-(pyridin-2-yl)ethoxy)methyl)acetamide]
IC50 ([2]; Table 14): > 20 µM

CCOP(=O)(OCC)Oc1ccc(CCCN(C(=O)C(Cl)Cl)c2ccnc(-c3cc(-c4c(Cl)cccc4Cl)no3)c2)cc1 [Cpd. 1038, 4-(3-(2,2-Dichloro-N-(2-(3-(2,6-dichlorophenyl)isoxazol-5-yl)pyridin-4-yl)acetamido)propyl)phenyl Diethyl Phosphate]
IC50 [2]: 1 to 20 µM

O=C(Nc1ccnc(-c2cc(-c3c(Cl)cccc3Cl)no2)c1)C(Cl)(Cl)C(=O)OC1CCCCC1 [compound 23]
IC50 [1, 3]: ≤ 10 µM

O=C(Nc1cccc(-c2cc(-c3c(N4CCOCC4)ccnc3Cl)no2)c1)C(Cl)(Cl)C(=O)OC1CCCCC1 [compound 52]
IC50 [1, 3]: > 10 µM

CCOC(=O)C(Cl)(Cl)C(=O)Nc1cccc(-c2cc(-c3c(N4CCOCC4)ccnc3Cl)no2)c1 [compound 54]
IC50 [1, 3]: > 10 µM

CC(C)(C)OC(=O)C(Cl)(Cl)C(=O)Nc1cccc(-c2cc(-c3c(N4CCOCC4)ccnc3Cl)no2)c1 [compound 56]
IC50 [1, 3]: > 10 µM

Cc1oc(=O)oc1CN(C(=O)C(Cl)Cl)c1cccc(-c2cc(-c3c(Cl)cccc3Cl)no2)c1 [compound 901, 2,2-dichloro-N-[3′-[3′-(2′,6′-dichlorophenyl)-5′-isoxazoyl]phenyl]N-[(5-methyl-1,3-dioxolene-2-one4-yl)methylene] acetamide]
IC50 [1, 3]: ≤ 10 µM

CC(C)(C)c1oc(=O)oc1CN(C(=O)C(Cl)Cl)c1cccc(-c2cc(-c3c(Cl)cccc3Cl)no2)c1 [compound 1007, 2,2-dichloro-N-[3′-[3′-(2′,6′-dichlorophenyl)-5′-isoxazoyl]phenyl]-N-[(5-t-butyl-1,3-dioxolene-2-one4yl)methylene]acetamide]
IC50 [1, 3]: ≤ 10 µM

— patent US20050239751A1, “Heterocyclic anti-viral compounds comprising metabolizable moieties and their uses” (Rigel Pharmaceuticals, Inc., priority 2004, published 2005)
